The test system of one data set is MEK. Kind of data set: Cellular assay for measuring MEK inhibition, C26CPA1 (inhibition of ERK phosphorylation in C26 cells). As to conditions: for IC50: murine colon 26 (C26) carcinoma cells, one hour at 37 C; for C26CPA1 % Inhibition @ 0.1 μM / C26CPA1 % Inhibition @ 1 μM: C26 cells. The format is cell-based, murine. As to the method: Cellular Assay for Measuring MEK Inhibition
MEK inhibitors were evaluated by determining their ability to inhibit phosphorylation of MAP kinase (ERK) in murine colon 26 (C26) carcinoma cells. Since ERK1 and ERK2 represent the only known substrates for MEK1 and MEK2, the measurement of inhibition of ERK phosphorylation in cells provides direct read out of cellular MEK inhibition by the compounds of the invention. Detection of phosphorylation of ERK was carried out either by Western blot or ELISA format. Briefly, the assays involve treatment of exponentially growing C26 cells with varying concentrations of the test compound (or vehicle control) for one hour at 37≡ C. For Western blot assay, cells were rinsed free of compound/vehicle and lysed in a solution containing 70 mM NaCl, 50 mM glycerol phosphate, 10 mM HEPES, […], 1% Triton X-100, 1 mM Na3VO4, 100 μM PMSF, 10 μM leupeptin and 10 μM pepstatin. Supernatants were then subjected to gel electrophoresis and hybridized to a primary antibody recognizing dually phosphorylated ERK1 and ERK2. To evaluate total MAPK levels, blots were subsequently ‘stripped’ and re-probed with a 1:1 mixture of polyclonal antibodies recognizing unphosphorylated ERK1 and ERK2. For pERK ELISA assay, pERK TiterZyme Enzyme immunometric Assay kits were acquired from Assay Designs, Inc (Ann Arbor, Mich.). Briefly, cells were harvested in lysis solution containing 50 mM β-glycerophosphate, 10 mM HEPES, pH7.4, 70 mM NaCl, 2 mM EDTA and 1% SDS and protein lysates were diluted 1:15 with supplied Assay buffer prior to the execution of the assay. The subsequent steps were carried out essentially as recommended by the manufacturer.

Structures can show the parent of a compound that is named as a salt. Bounds are passed on as bounds.

One may read the melting point as the temperature of the solid-liquid transition. In the case of `CN(C)CCCN(C)c1nnc(-c2ccc(F)c(F)c2Nc2ccc(I)cc2F)o1` (as salt: hydrochloride) [Example 12, N-{5-[3,4-Difluoro-2-(2-fluoro-4-iodo-phenylamino)-phenyl]-[1,3,4]oxadiazol-2-yl}-N,N′,N′-trimethyl-propane-1,3-diamine], the melting point is 123 to 126 °C.
On the same count and under the same terms, then `Fc1cc(I)ccc1Nc1c(-c2nnc(NCCN3CCCCC3)o2)ccc(F)c1F` (as salt: hydrochloride) [Example 13, {5-[3,4-Difluoro-2-(2-fluoro-4-iodo-phenylamino)-phenyl]-[1,3,4]oxadiazol-2-yl}-(2-piperidin-1-yl-ethyl)-amine], with 191 to 193 °C.
Regarding `NCCCCNc1nnc(-c2ccc(F)c(F)c2Nc2ccc(I)cc2F)o1` (as salt: hydrochloride) [Example 14, N′1′-{5-[3,4-Difluoro-2-(2-fluoro-4-iodo-phenylamino)-phenyl]-[1,3,4]oxadiazol-2-yl}-butane-1,4-diamine], the melting point was 157 to 159 °C.
In the case of `NCCCNc1nnc(-c2ccc(F)c(F)c2Nc2ccc(I)cc2F)o1` (as salt: hydrochloride) [Example 15, N′1′-{5-[3,4-Difluoro-2-(2-fluoro-4-iodo-phenylamino)-phenyl]-[1,3,4]oxadiazol-2-yl}-propane-1,3-diamine], the melting point was in the range of 173 to 176 °C.
On the same count and under the same terms, the figure for `CN(C)CCCNc1nnc(-c2ccc(F)c(F)c2Nc2ccc(I)cc2F)o1` (as salt: hydrochloride) [Example 16, N-{5-[3,4-Difluoro-2-(2-fluoro-4-iodo-phenylamino)-phenyl]-[1,3,4]oxadiazol-2-yl}-N′,N′-dimethyl-propane-1,3-diamine] is 168 to 170 °C.
Still for that read-out and setting: then `CN(C)CCNc1nnc(-c2ccc(F)c(F)c2Nc2ccc(I)cc2F)o1` (as salt: hydrochloride) [Example 17, N-{5-[3,4-Difluoro-2-(2-fluoro-4-iodo-phenylamino)-phenyl]-[1,3,4]oxadiazol-2-yl}-N′,N′-dimethyl-ethane-1,2-diamine], with 184 to 187 °C; and `CNCCNc1nnc(-c2ccc(F)c(F)c2Nc2ccc(I)cc2F)o1` (as salt: hydrochloride) [Example 18, N-{5-[3,4-Difluoro-2-(2-fluoro-4-iodo-phenylamino)-phenyl]-[1,3,4]oxadiazol-2-yl}-N′-methyl-ethane-1,2-diamine], with 173 to 175 °C; and `NCCNc1nnc(-c2ccc(F)c(F)c2Nc2ccc(I)cc2F)o1` (as salt: salt) [Example 11, N′1′-{5-[3,4-Difluoro-2-(2-fluoro-4-iodo-phenylamino)-phenyl]-[1,3,4]oxadiazol-2-yl}-ethane-1,2-diamine], with 156 to 158 °C.
For orientation: IC50 means the midpoint of a concentration-inhibition curve. `Nc1nnc(-c2ccc(F)c(F)c2Nc2ccc(I)cc2F)o1` [Example 1, 5-[3,4-Difluoro-2-(2-fluoro-4-iodo-phenylamino)-phenyl]-[1,3,4]oxadiazol-2-ylamine] displayed a melting point of 248 to 249 °C. In the data set with MEK, this compound yielded an IC50 of 40 nM.
For `CCNc1nnc(-c2ccc(F)c(F)c2Nc2ccc(I)cc2F)o1` [Example 4, {5-[3,4-Difluoro-2-(2-fluoro-4-iodo-phenylamino)-phenyl]-[1,3,4]oxadiazol-2-yl}-ethyl-amine], the melting point lay within 188 to 189 °C. Also, the concentration for half-maximal inhibition (IC50) with MEK is 89 nM.
The corresponding values for `C=CCNc1nnc(-c2ccc(F)c(F)c2Nc2ccc(I)cc2F)o1` [Example 5, Allyl-{5-[3,4-difluoro-2-(2-fluoro-4-iodo-phenylamino)-phenyl]-[1,3,4]oxadiazol-2-yl}-amine] are 175 to 178 °C and 9 nM.
`COc1ccc(Nc2nnc(-c3ccc(F)c(F)c3Nc3ccc(I)cc3F)o2)c(OC)c1` [Example 6, {5-[3,4-Difluoro-2-(2-fluoro-4-iodo-phenylamino)-phenyl]-[1,3,4]oxadiazol-2-yl}-(2.4-dimethoxy-phenyl)-amine] yielded a melting point of 185 to 186 °C. Further, in the data set on MEK, the IC50 is above 1000 nM.
The like results for `CN(C)c1ccc(Nc2nnc(-c3ccc(F)c(F)c3Nc3ccc(I)cc3F)o2)cc1` [Example 7, N-{5-[3,4-Difluoro-2-(2-fluoro-4-iodo-phenylamino)-phenyl]-[1,3,4]oxadiazol-2-yl}-N′,N′-dimethyl-benzene-1,4-diamine] were, in that order, 230 to 233 °C and above 1000 nM.
The corresponding values for `OCC(O)CNc1nnc(-c2ccc(F)c(F)c2Nc2ccc(I)cc2F)o1` (stereo not shown) [Example 8, 3-{5-[3,4-Difluoro-2-(2-fluoro-4-iodo-phenylamino)-phenyl]-[1,3,4]oxadiazol-2-ylamino}-propane-1,2-diol] are 157 to 159 °C and 67 nM.
The like results for `CCN(CC)CCCNc1nnc(-c2ccc(F)c(F)c2Nc2ccc(I)cc2F)o1` [Example 10, N-{5-[3,4-Difluoro-2-(2-fluoro-4-iodo-phenylamino)-phenyl]-[1,3,4]oxadiazol-2-yl}-N′,N′-diethyl-propane-1,3-diamine] were, in that order, 116 to 118 °C and 153 nM.
For the compound `OCCCNc1nnc(-c2ccc(F)c(F)c2Nc2ccc(I)cc2F)o1` [Example 30, 3-{5-[3,4-Difluoro-2-(2-fluoro-4-iodo-phenylamino)-phenyl]-[1,3,4]oxadiazol-2-ylamino}-propan-1-ol], the melting point was 154 to 155 °C.
`C=CCNc1nnc(-c2ccc(F)c(F)c2Nc2ccc(CC)cc2F)o1` [Example 70, Allyl-{5-[2-(4-ethyl-2-fluoro-phenylamino)-3,4-difluoro-phenyl]-[1,3,4]oxadiazol-2-yl}-amine] showed a melting point of 120 to 123 °C.
In the case of `CCc1ccc(Nc2c(-c3nnc(N4CCN(C)CC4)o3)ccc(F)c2F)c(F)c1` [Example 112, {2,3-Difluoro-6-[5-(4-methyl-piperazin-1-yl)-1,3,4-oxadiazol-2-yl]-phenyl}-(4-ethyl-2-fluoro-phenyl)-amine], in the data set with MEK, the “C26CPA1 % Inhibition @ 0.1 μM” value is 62.6% and the “C26CPA1 % Inhibition @ 1 μM” value is reported as 84%.
The corresponding values for `CCc1ccc(Nc2c(-c3nnc(NCCc4cccs4)o3)ccc(F)c2F)c(F)c1` [Example 114, {5-[2-(4-Ethyl-2-fluoro-phenylamino)-3,4-difluoro-phenyl]-1,3,4-oxadiazol-2-yl}-(2-thiophen-2-yl-ethyl)-amine] are 35.4% and 46.3%.
The corresponding values for `CCc1ccc(Nc2c(-c3nnc(N(C)CCS(C)(=O)=O)o3)ccc(F)c2F)c(F)c1` [Example 121, {5-[2-(4-Ethyl-2-fluoro-phenylamino)-3,4-difluoro-phenyl]-1,3,4-oxadiazol-2-yl}-(2-methanesulfonyl-ethyl)-methyl-amine] are 0% and 26.9%.
On to `CCc1ccc(Nc2c(-c3nnc(N4CCN(Cc5ccccn5)CC4)o3)ccc(F)c2F)c(F)c1` [Example 123, {2,3-Difluoro-6-[5-(4-pyridin-2-ylmethyl-piperazin-1-yl)-1,3,4-oxadiazol-2-yl]-phenyl}-(4-ethyl-2-fluoro-phenyl)-amine], for which, in the data set with MEK, the “C26CPA1 % Inhibition @ 0.1 μM” value was determined as 0% and the “C26CPA1 % Inhibition @ 1 μM” value was 0%.
As to `CCc1ccc(Nc2c(-c3nnc(N(C)CCc4ccccn4)o3)ccc(F)c2F)c(F)c1` [Example 127, {5-[2-(4-Ethyl-2-fluoro-phenylamino)-3,4-difluoro-phenyl]-1,3,4-oxadiazol-2-yl}-methyl-(2-pyridin-2-yl-ethyl)-amine], in the data set on MEK, the “C26CPA1 % Inhibition @ 0.1 μM” value worked out at 0% and the “C26CPA1 % Inhibition @ 1 μM” value came out at 0%.
Consider `CCc1ccc(Nc2c(-c3nnc(NCC(c4cccnc4)N4CCOCC4)o3)ccc(F)c2F)c(F)c1` (stereo not shown) [Example 128, {5-[2-(4-Ethyl-2-fluoro-phenylamino)-3,4-difluoro-phenyl]-1,3,4-oxadiazol-2-yl}-(2-morpholin-4-yl-2-pyridin-3-yl-ethyl)-amine], for which, in the data set on MEK, the “C26CPA1 % Inhibition @ 0.1 μM” value was 0% and the “C26CPA1 % Inhibition @ 1 μM” value is on record as 0%.
On to `CCc1ccc(Nc2c(-c3nnc(NC(C)Cc4ccsc4)o3)ccc(F)c2F)c(F)c1` (stereo not shown) [Example 137, {5-[2-(4-Ethyl-2-fluoro-phenylamino)-3,4-difluoro-phenyl]-1,3,4-oxadiazol-2-yl}-(1-methyl-2-thiophen-3-yl-ethyl)-amine], for which, in the data set with MEK, the “C26CPA1 % Inhibition @ 0.1 μM” value is listed as 72.1% and the “C26CPA1 % Inhibition @ 1 μM” value is 85.3%.
The compound `CCc1ccc(Nc2c(-c3nnc(CC)o3)ccc(F)c2F)c(F)c1` [Example 142, (4-Ethyl-2-fluoro-phenyl)-[6-(5-ethyl-[1,3,4]oxadiazol-2-yl)-2,3-difluoro-phenyl]-amine] displayed a melting point of 82 to 83 °C.
`CNCCNc1nnc(-c2ccc(F)c(F)c2Nc2ccc(CCO)cc2F)o1` [Example 167, 2-(4-{2,3-difluoro-6-[5-(2-methylamino-ethylamino)-1[1,3,4]oxadiazol-2-yl]-phenylamino}-3-fluoro-phenyl)-ethanol] displayed an IC50 with MEK of 910 nM.

These data come from patent US20050004186A1, “MEK inhibiting compounds” (Pfizer Inc, priority 2002, published 2005).
